Patent EP4656049A1, “A METHOD OF CONTROLLING INSECT PESTS” (UPL Mauritius Limited, priority 2024, dated 2025)

Columns and labels:
Type in all cases: in vivo
[1] = system: Halyomorpha halys Nymphs; assay: Lab trial in Petri dishes, suspension applied on nymphs + spray on beans; conditions: 0.5 ml/L
Description: Composition used for insect control: Suspension of Beauveria bassiana CNCM I-2960 spores prepared in Tween 80. Total CFU count = 1 x 10^8 CFU/ml Trial method: Lab trial in Petri dishes, 10 replicates, 5 nymphs/replicate Suspension applied on nymphs + spray on beans Incubation in climatic room at +25°C Assessment of mortality percentage of Halyomorpha halys Nymphs at 10 DAA Comparative control: Acetamiprid Table 2: Efficacy of Beauveria bassiana CNCM I-2960 on Halyomorpha halys Nymphs

[2] = system: Halyomorpha halys eggs; assay: Lab trial in Petri dishes, suspension sprayed on eggs; conditions: 0.5 ml/L
Description: Composition used for insect control: Suspension of Beauveria bassiana CNCM I-2960 spores prepared in Tween 80. Total CFU count = 1 x 10^6 CFU/ml, 1 x 10^7 CFU/ml and 1 x 10^8 CFU/ml Suspension of Beauveria bassiana CNCM I-2961 spores prepared in Tween 80. Total CFU count = 1 x 10^6 CFU/ml, 1 x 10^7 CFU/ml and 1 x 10^8 CFU/ml Trial method: Lab trial in Petri dishes, 5 replicates, 10 nymphs/replicate Suspension sprayed on eggs with equivalent volume of 1000 L/ha Incubation in climatic room at +25°C Assessment of mortality percentage of Halyomorpha halys Nymphs from treated eggs at 6 DAH, 9DAH, 13 DAH and 17 DAH. DAH = Days after hatching Comparative control: Acetamiprid Table 3: Efficacy of Beauveria bassiana CNCM-2961 and Beauveria bassiana CNCM I-2960 on Halyomorpha halys nymphs from treated eggs

[3] = system: Dysaphis plantaginea adults; assay: Lab trial in Petri dishes, leaf disc dipped in suspension; conditions: 0.14 kg/ha
Description: Composition used for insect control: Suspension of Beauveria bassiana CNCM I-2961 spores prepared in Tween 80. Total CFU count = 1.2 x 10^8 CFU/ml Trial method: Lab trial in Petri dishes, 10 replicates, 5 adults/replicate Leaf disc dipped in prepared suspension of treatment, let dried and set up on agar agar Incubation in climatic room at +21°C, dead adults removed and incubated for sporulation on cadaver: assessment at 17 DAA Assessment of mortality percentage of Dysaphis plantaginea adults at 8 DAA, 10 DAA DAA = Days after application Comparative control: Flonicamid Table 1: Efficacy of Beauveria bassiana CNCM I-2961 on Dysaphis plantaginea adults

[4] = system: Empoasca vitis adults; assay: Lab trial in Petri dishes, leaf dipped in suspension; conditions: 75 ml/L
Description: Composition used for insect control: Suspension of Beauveria bassiana CNCM I-2960 spores prepared in Tween 80. Total CFU count = 8.2 x 10^7 CFU/ml Suspension of Beauveria bassiana CNCM I-2961 spores prepared in Tween 80. Total CFU count = 1.1 x 10^8 CFU/ml Trial method: Lab trial in Petri dishes, 5 replicates, 10 nymphs/replicate Leaf dipped in prepared suspension of treatment, let dried and set up on agar agar Incubation in climatic room at +20 C, dead adults removed and incubated for sporulation on cadaver: assessment at 15 DAA Assessment of mortality percentage of Empoasca vitis adults at 7 DAA, 11DAA. Comparative control: Lambda cyhalothrin Table 4: Efficacy of Beauveria bassiana CNCM I-2961 and Beauveria bassiana CNCM I-2960 on Empoasca vitis adults

[5] = system: Empoasca vitis L2/L3 larvae; assay: as above; conditions: 75 ml/L
Description: Composition used for insect control: Suspension of Beauveria bassiana CNCM I-2961 spores prepared in Tween 80. Total CFU count = 1.0 x 10^8 CFU/ml Trial method: Lab trial in Petri dishes, 10 replicates, 5 L2&L3 larvae /replicate Leaf dipped in prepared suspension of treatment, let dried and set up on agar agar Incubation in climatic room at +20°C, dead adults removed and incubated for sporulation on cadaver: assessment at 18 DAA Assessment of mortality percentage of Empoasca vitis L2/L3 larvae at 7 DAA, 10DAA. Comparative control: Lambda cyhalothrin Table 5: Efficacy of Beauveria bassiana CNCM I-2961 on Empoasca vitis L2/L3 larvae

[6] = system: Bactrocera oleae adults; assay: Lab trial in plastic containers, flies dipped in test solution; conditions: 75 ml/L
Description: Composition used for insect control: Suspension of Beauveria bassiana CNCM I-2960 spores prepared in Tween 80. Total CFU count = 9.5 x 10^7 CFU/ml Trial method: Lab trial in plastic containers, 5 replicates, 10 adults /replicate Flies dipped in test solution Incubation in climatic room at +25°C Assessment of mortality percentage of Bactrocera oleae adults at 10DAT. DAT = Days after Treatment Comparative control: Lambda-cyhalothrin Table 7: Efficacy of Beauveria bassiana CNCM I-2960 on Bactrocera oleae adults

Structure (SMILES): C/C(=N\C#N)N(C)Cc1ccc(Cl)nc1 [Acetamiprid]
- Mortality percentage of Halyomorpha halys Nymphs at 10 DAA [1]: 100%
- Mortality percentage of Halyomorpha halys nymphs from treated eggs at 6 DAH ([2]; 6 DAH): 0%
- Mortality percentage of Halyomorpha halys nymphs from treated eggs at 9 DAH ([2]; 9 DAH): 7%
- Mortality percentage of Halyomorpha halys nymphs from treated eggs at 13 DAH ([2]; 13 DAH): 12%
- Mortality percentage of Halyomorpha halys nymphs from treated eggs at 17 DAH ([2]; 17 DAH): 22%

Structure (SMILES): N#CCNC(=O)c1cnccc1C(F)(F)F [Flonicamid]
- Mortality percentage of Dysaphis plantaginea adults at 8 DAA ([3]; 8 DAA): 100%
- Mortality percentage of Dysaphis plantaginea adults at 10 DAA ([3]; 10 DAA): 100%

Structure (SMILES): CC1(C)[C@H](C(=O)O[C@H](C#N)c2cccc(Oc3ccccc3)c2)[C@@H]1/C=C(\Cl)C(F)(F)F (racemic) [Lambda cyhalothrin]
- Mortality percentage of Empoasca vitis adults at 7 DAA ([4]; 7 DAA): 83%
- Mortality percentage of Empoasca vitis adults at 11 DAA ([4]; 11 DAA): 100%
- Mortality percentage of Empoasca vitis larvae at 7 DAA ([5]; 7 DAA): 65%
- Mortality percentage of Empoasca vitis larvae at 10 DAA ([5]; 10 DAA): 91%
- Mortality percentage of Bactrocera oleae adults at 10 DAA [6]: 100%
